pEC50, pIC50: −log10 of the molar value. Active and inactive are the calls of the source. The calls are words filed in the database; no cut-off is given here.
Legend:
[1] = target: T1, Human immunodeficiency virus type 1 reverse transcriptase (Human immunodeficiency virus 1, UniProt Q72547); assay: Inhibition of RNase H activity of recombinant His-tagged HIV-1 group M subtype B reverse transcriptase p66/p51 expressed in Escherichia coli M15 using 18-nucleotide 3'-fluorescein-labeled RNA/5'-dabcyl-labeled DNA hybrid as substrate incubated for 1 hr; set-up: species or system HIV-1 M:B
HIV-1 M:B [2] = assay: Selectivity index, ratio of IC50 for recombinat HIV-1 group M subtype B His-tagged reverse transcriptase p66 N474A mutant expressed in Escherichia coli M15 to IC50 for RNase H activity of recombinant His-tagged HIV-1 group M subtype B reverse transcriptase p66/p51 expressed in Escherichia coli M15 …
[3] = tested on: Human immunodeficiency virus type 1 reverse transcriptase (Human immunodeficiency virus 1), Q72547 [K451A]; assay: Inhibition of recombinat HIV-1 group M subtype B His-tagged reverse transcriptase p66 K451A mutant expressed in Escherichia coli M15; settings: HIV-1 M:B
[4] = Selectivity index, ratio of CC50 for human HeLa cells expressing CD4-LTR-beta-gal assessed as reduction in cell viability measured after 24 hrs by CellTiter96 AQueous one solution cell proliferation assay to EC50 for HIV1 infected in human HeLa-CD4-LTR-betagal cells measured after 24 hrs by fluorescence based analysis; assay type: toxicity; settings: read-out: Ratio CC50/EC50
[5] = Cytotoxicity against human HeLa cells expressing CD4-LTR-beta-gal assessed as reduction in cell viability measured after 24 hrs by CellTiter96 AQueous one solution cell proliferation assay; assay type: cell-based
[6] = tested on: Human immunodeficiency virus type 1 reverse transcriptase (Human immunodeficiency virus 1), Q72547 [K540A]; assay: Inhibition of recombinat HIV-1 group M subtype B His-tagged reverse transcriptase p66 K540A mutant expressed in Escherichia coli M15; settings: HIV-1 M:B
HIV-1 M:B [7] = assay: Selectivity index, ratio of IC50 for recombinat HIV-1 group M subtype B His-tagged reverse transcriptase p66 Q475A mutant expressed in Escherichia coli M15 to IC50 for RNase H activity of recombinant His-tagged HIV-1 group M subtype B reverse transcriptase p66/p51 expressed in Escherichia coli M15 …
HIV-1 M:B [8] = assay: Selectivity index, ratio of IC50 for recombinat HIV-1 group M subtype B His-tagged reverse transcriptase p66 Y501A mutant expressed in Escherichia coli M15 to IC50 for RNase H activity of recombinant His-tagged HIV-1 group M subtype B reverse transcriptase p66/p51 expressed in Escherichia coli M15 …
[9] = tested on: Human immunodeficiency virus type 1 reverse transcriptase (Human immunodeficiency virus 1), Q72547 [R448A]; assay: Inhibition of recombinat HIV-1 group M subtype B His-tagged reverse transcriptase p66 R448A mutant expressed in Escherichia coli M15; settings: HIV-1 M:B
HIV-1 M:B [10] = assay: Selectivity index, ratio of IC50 for recombinat HIV-1 group M subtype B His-tagged reverse transcriptase p66 W535A mutant expressed in Escherichia coli M15 to IC50 for RNase H activity of recombinant His-tagged HIV-1 group M subtype B reverse transcriptase p66/p51 expressed in Escherichia coli M15 …
[11] = tested on: Human immunodeficiency virus 1; assay: Antiviral activity against HIV1 infected in human HeLa-CD4-LTR-betagal cells assessed as inhibition of viral replication measured after 24 hrs by fluorescence based analysis; assay type: functional, organism-based; settings: Human immunodeficiency virus 1, 24 h
[12] = tested on: Human immunodeficiency virus 1; assay: Selectivity index, ratio of IC50 for wild type HIV1 subtype B NL4-3 6xHis-tagged integrase expressed in Escherichia coli BL21 (DE3) using DNA as substrate preincubated with enzyme for 1 hr followed by addition of recombinant 6xHis-tagged LEDGF/p75 expressed in Escherichia coli BL21 (DE3), DNA donor …
[13] = Stability of compound in 90% human serum at 5 mM and 37 degree C measured after 3 hrs by ESI-RP-HPLC analysis; assay type: ADME, cell-free; settings: 5000 µM
[14] = Drug metabolism in 90% human serum assessed as retro-Claisen adduct derived 1-(1-(4-fluorobenzyl)-4-phenyl-1H-pyrrol-3-yl)ethanone metabolite formation at 5 mM and 37 degree C measured after 3 hrs by ESI-RP-HPLC analysis; assay type: ADME, cell-free; settings: 5000 µM
[15] = target: Human immunodeficiency virus type 1 integrase (Human immunodeficiency virus 1, UniProt Q7ZJM1); assay: Inhibition of wild type HIV1 subtype B NL4-3 6xHis-tagged integrase expressed in Escherichia coli BL21 (DE3) assessed as inhibition of 3'-processing and strand-transfer reactions using DNA as substrate preincubated with enzyme for 1 hr followed by addition of recombinant 6xHis-tagged LEDGF/p75 expressed in Escherichia coli BL21 (DE3), DNA donor substrate and DNA acceptor substrate and further …
[16] = target: T1, Human immunodeficiency virus type 1 reverse transcriptase; assay: Inhibition of RNase H activity of recombinant HIV-1 reverse transcriptase p66/p51 expressed in Escherichia coli M15 using 5'-[gamma32P]ATP-labeled-tC5U RNA oligonucleotide/p12 DNA oligonucleotide hybrid as substrate incubated for 30 mins

Human immunodeficiency virus type 1 integrase, sequence (Q7ZJM1 whole entry): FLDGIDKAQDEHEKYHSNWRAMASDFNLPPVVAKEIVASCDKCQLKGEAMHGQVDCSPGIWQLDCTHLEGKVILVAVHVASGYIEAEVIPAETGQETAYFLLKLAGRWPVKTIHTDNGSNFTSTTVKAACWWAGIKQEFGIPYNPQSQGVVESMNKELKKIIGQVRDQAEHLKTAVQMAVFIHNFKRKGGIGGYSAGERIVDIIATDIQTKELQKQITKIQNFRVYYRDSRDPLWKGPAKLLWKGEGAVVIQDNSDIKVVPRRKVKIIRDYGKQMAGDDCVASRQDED

Molecule `O=C(O)c1cc(-c2cn(Cc3ccc(F)cc3)cc2-c2ccc(OCCCCc3ccccc3)cc2)n[nH]1` has a pIC50 [1] of 6.57.
Work on `O=C(O)c1cc(-c2cn(Cc3ccc(F)cc3)cc2-c2ccc(OCCCCCc3ccccc3)cc2)n[nH]1` yielded a pIC50 [1] of 5.04.
Work on `CCOC(=O)c1cc(-c2cc[nH]c2)n[nH]1` yielded a pIC50 [1] of less than 4.00.
For `CCOC(=O)c1cc(-c2cn(Cc3ccc(F)cc3)cc2-c2ccc3ccccc3c2)n[nH]1`, the Ratio IC50 (HIV-1 M:B [2]) was greater than 5, the inhibition [3] was “inactive” and the selectivity ratio at 24 h [4] was greater than 10. The CC50 at 24 h [5] was greater than 200 µM, the pIC50 [1] was 5.03 and the inhibition [6] was “inactive”. For the same molecule, the Ratio IC50 (HIV-1 M:B [7]) was greater than 5, the Ratio IC50 (HIV-1 M:B [8]) was greater than 5 and the inhibition [9] was “inactive”. It also gave a Ratio IC50 (HIV-1 M:B [10]) greater than 5, a pEC50 [11] of 4.39 to 5.40 and a Ratio IC50 [12] greater than 10.6.
`O=C(O)c1cc(-c2cn(Cc3ccc(F)cc3)cc2-c2ccc3ccccc3c2)n[nH]1` gave a pIC50 [1] of 4.86.
`CCOC(=O)c1cc(-c2cn(Cc3ccc(F)cc3)cc2-c2ccc(OCC(=O)Nc3ccccc3)cc2)n[nH]1` showed a pIC50 [1] of 5.17.
`CCOC(=O)c1cc(-c2cn(Cc3ccc(F)cc3)cc2-c2ccc(OCC(=O)Nc3ccc(C(=O)O)cc3)cc2)n[nH]1` showed a pIC50 [1] of 5.09.
Molecule `CCOC(=O)c1cc(-c2cn(Cc3ccc(F)cc3)cc2-c2ccc(OCc3cccc4ccccc34)cc2)n[nH]1` has a pIC50 [1] of 5.26.
For `O=C(O)c1cc(-c2cn(Cc3ccc(F)cc3)cc2-c2ccccc2)n[nH]1`, the pIC50 [1] was 4.12 and the Stability [13] was “Stable”.
`CCOC(=O)c1cc(-c2cn(Cc3cccc4ccccc34)cc2-c2ccc(OCC(=O)Nc3ccccc3)cc2)n[nH]1` showed a pIC50 [1] of 5.10.
For `Cc1cc(C(=O)O)n[nH]1`, the pIC50 [1] was less than 4.00.
`CCOC(=O)c1cc(-c2cn(CCCCc3ccccc3)cc2-c2ccccc2)n[nH]1` gave a pIC50 [1] of 4.01.
With `CCOC(=O)c1cc(-c2cn(C)cc2-c2ccccc2)n[nH]1` the pIC50 [1] was less than 4.00.
Molecule `O=C(O)c1cc(-c2cn(Cc3cccc4ccccc34)cc2-c2ccc(OCc3cccc4ccccc34)cc2)n[nH]1` has a pIC50 [1] of 5.76.
For `O=C(O)/C(O)=C/C(=O)c1cn(Cc2ccc(F)cc2)cc1-c1ccccc1`, the Stability [13] was “Unstable” and the Drug metabolism [14] was “Metabolite_Detected”.
`CCOC(=O)c1cc(C)n[nH]1` gave a pIC50 [1] of less than 4.00.
With `O=C(COc1ccc(-c2cn(Cc3ccc(F)cc3)cc2-c2cc(C(=O)O)[nH]n2)cc1)Nc1ccccc1` the pIC50 [1] was 4.64.
Work on `CCOC(=O)c1cc(-c2cn(Cc3cccc4ccccc34)cc2-c2ccccc2)n[nH]1` yielded a pIC50 [1] of 5.03.
Work on `O=C(O)c1cc(-c2cn(Cc3cccc4ccccc34)cc2-c2ccccc2)n[nH]1` yielded a pIC50 [1] of 4.60.
`CCOC(=O)c1cc(-c2cn(Cc3cccc4ccccc34)cc2-c2ccc(OCCCCc3ccccc3)cc2)n[nH]1` showed a pIC50 [1] of 5.07.
With `O=C(O)c1cc(-c2ccn(Cc3ccc(F)cc3)c2)n[nH]1` the pIC50 [1] was less than 4.00.
`CCOC(=O)c1cc(-c2ccn(Cc3ccc(F)cc3)c2)n[nH]1` gave a pIC50 [1] of less than 4.00.
For `CCOC(=O)c1cc(-c2cn(Cc3ccc(F)cc3)cc2-c2ccc(OCc3ccccc3)cc2)n[nH]1`, the Ratio IC50 (HIV-1 M:B [2]) was greater than 5, the inhibition [3] was “inactive” and the pIC50 [1] was 5.27. The inhibition [6] was “inactive”, the Ratio IC50 (HIV-1 M:B [7]) was greater than 5 and the Ratio IC50 (HIV-1 M:B [8]) was greater than 5. For the same molecule, the inhibition [9] was “inactive”, the Ratio IC50 (HIV-1 M:B [10]) was greater than 5 and the pEC50 [11] was 4.39 to 5.40. For the same molecule, the Ratio IC50 [12] was greater than 18.5.
In the case of `O=C(O)c1cc(-c2ccccc2)n[nH]1`, the pIC50 [1] was less than 4.00.
In the case of `CCOC(=O)c1cc(-c2cn(Cc3ccc(F)cc3)cc2-c2ccc(OCCCCc3ccccc3)cc2)n[nH]1`, the Ratio IC50 (HIV-1 M:B [2]) was greater than 5, the inhibition [3] was “inactive” and the selectivity ratio at 24 h [4] was greater than 10. The CC50 at 24 h [5] was greater than 200 µM, the pIC50 [1] was 4.75 and the inhibition [6] was “inactive”. For the same molecule, the Ratio IC50 (HIV-1 M:B [7]) was greater than 5, the Ratio IC50 (HIV-1 M:B [8]) was greater than 5 and the inhibition [9] was “inactive”. It also gave a Ratio IC50 (HIV-1 M:B [10]) greater than 5, a pEC50 [11] of 4.39 to 5.40 and a Ratio IC50 [12] greater than 5.6.
Molecule `O=C(O)c1cc(-c2cn(Cc3ccc(F)cc3)cc2-c2ccc(OCc3cccc4ccccc34)cc2)n[nH]1` has a pIC50 [1] of 5.35.
In the case of `CCOC(=O)/C(O)=C/C(=O)c1cn(Cc2ccc(F)cc2)cc1-c1ccccc1`, the Stability [13] was “Unstable” and the Drug metabolism [14] was “Metabolite_Detected”.
`Cn1cc(-c2ccccc2)c(-c2cc(C(=O)O)[nH]n2)c1` gave a pIC50 [1] of less than 4.00.
For `CCOC(=O)c1cc(-c2cn(Cc3ccc(F)cc3)cc2-c2ccccc2)n[nH]1`, the Ratio IC50 (HIV-1 M:B [2]) was greater than 5, the inhibition [3] was “Active” and the pIC50 [15] was 4.12. For the same molecule, the pIC50 [1] was 4.84, the Stability [13] was “Stable” and the inhibition [6] was “inactive”. The Ratio IC50 (HIV-1 M:B [7]) was greater than 5, the Ratio IC50 (HIV-1 M:B [8]) was greater than 5 and the inhibition [9] was “inactive”. The Ratio IC50 (HIV-1 M:B [10]) was greater than 5, the pEC50 [11] was 5.40 and the Ratio IC50 [12] was 5.
In the case of `CCOC(=O)/C(O)=C/C(=O)/C=C/c1cccn1Cc1ccccc1Cl`, the Ratio IC50 (HIV-1 M:B [2]) was greater than 5, the pIC50 [16] was 5.14 and the inhibition [6] was “Active”. It also gave a Ratio IC50 (HIV-1 M:B [7]) greater than 5, a Ratio IC50 (HIV-1 M:B [8]) greater than 5 and a Ratio IC50 (HIV-1 M:B [10]) greater than 5.
Molecule `O=C(O)c1cc(-c2c[nH]cc2-c2ccccc2)n[nH]1` has a pIC50 [1] of less than 4.00.
With `O=C(COc1ccc(-c2cn(Cc3ccc(F)cc3)cc2-c2cc(C(=O)O)[nH]n2)cc1)Nc1ccc(C(=O)O)cc1` the pIC50 [1] was 4.15.
Molecule `O=C(O)c1cc(-c2ccccc2-c2ccccc2)n[nH]1` has a pIC50 [1] of less than 4.00.
For `O=C(O)c1cc(-c2cn(CCCCc3ccccc3)cc2-c2ccccc2)n[nH]1`, the pIC50 [1] was 4.20.
`O=C(COc1ccc(-c2cn(Cc3cccc4ccccc34)cc2-c2cc(C(=O)O)[nH]n2)cc1)Nc1ccccc1` gave a pIC50 [1] of 5.24.
In the case of `CCOC(=O)c1cc(-c2cn(Cc3ccc(F)cc3)cc2-c2ccc(OCCCCCc3ccccc3)cc2)n[nH]1`, the pIC50 [1] was 4.59.
`O=C(O)c1cc(-c2cc[nH]c2)n[nH]1` gave a pIC50 [1] of less than 4.00.
In the case of `CCOC(=O)c1cc(-c2c[nH]cc2-c2ccccc2)n[nH]1`, the pIC50 [1] was less than 4.00.
In the case of `O=C(O)c1cc(-c2cn(Cc3cccc4ccccc34)cc2-c2ccc(OCCCCc3ccccc3)cc2)n[nH]1`, the pIC50 [1] was 5.62.
Molecule `O=C(O)c1cc(-c2cn(Cc3ccc(F)cc3)cc2-c2ccc(OCc3ccccc3)cc2)n[nH]1` has a pIC50 [1] of 5.49.
Molecule `CCOC(=O)c1cc(-c2cn(Cc3cccc4ccccc34)cc2-c2ccc(OCc3cccc4ccccc34)cc2)n[nH]1` has a pIC50 [1] of 5.38.
`CCOC(=O)c1cc(-c2ccccc2-c2ccccc2)n[nH]1` gave a pIC50 [1] of less than 4.00.
`CCOC(=O)c1cc(-c2ccccc2)[nH]n1` showed a pIC50 [1] of less than 4.00.

Source: ChEMBL document CHEMBL4613295, “Pyrrolyl Pyrazoles as Non-Diketo Acid Inhibitors of the HIV-1 Ribonuclease H Function of Reverse Transcriptase” (ACS Med Chem Lett, 2020)
